Tests used:
B. subtilis 168 [1] = assay: fitness (endpoint OD595 vs no drug) (fraction); higher = more growth
Procedure, shortened: (§1)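 Bacterial growth was followed in 384-well plates seeded at OD595 0.01, with 30 µl per well, or 55 µl for S. pneumoniae, in TSB, LB Lennox or CY at 37 °C. OD595 was read every 30 min for 14 h, and each reading had the first reading subtracted as background. Fitness is the background-corrected optical density at entry into stationary phase divided by the robust mean of the no-drug control wells. This ratio is capped at 1.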

S. aureus Newman [2] = assay: as above
Procedure, shortened: as §1

S. pneumoniae D39V [3] = assay: as above
Procedure, shortened: as §1

B. subtilis 168 [4] = assay: Bliss interaction score (quartile over a dose matrix) (fitness difference); higher = more antagonism (negative = synergy)
Procedure, shortened: (§2)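 Each OD595 reading at entry into stationary phase was scaled to the robust mean of the untreated wells on its plate, with a ceiling of 1. These ratios define fitness, and single-drug fitness was inferred from combinations. The Bliss score compares observed fitness with the product-based expectation and is reported as quartiles across all replicate types, technical, biological and donor/recipient.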

S. aureus DSM 20231 = assay: as above
Procedure, shortened: as §2

S. aureus Newman [5] = assay: as above
Procedure, shortened: as §2

S. pneumoniae D39V [6] = assay: as above
Procedure, shortened: as §2
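For Bliss interaction score (quartile over a dose matrix) in this document: first quartile when negative (synergy) and third quartile when positive (antagonism).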

CNC(C)C1CCC(N)C(OC2C(N)CC(N)C(OC3OCC(C)(O)C(NC)C3O)C2O)O1 (centres undefined) [Gentamicin] + Cc1cc(NS(=O)(=O)c2ccc(N)cc2)no1 [Sulfamethoxazol]
one replicate, main component drawn
Conditions	fitness
B. subtilis 168 [1], first compound 0.0625 µg/mL, partner 0.5 µg/mL	0.848
B. subtilis 168 [1], first compound 0.125 µg/mL, partner 0.5 µg/mL	0.975
B. subtilis 168 [1], first compound 0.25 µg/mL, partner 0.5 µg/mL	0.864
S. aureus Newman [2], first compound 0.375 µg/mL, partner 1 µg/mL	≥ 1
S. aureus Newman [2], first compound 0.375 µg/mL, partner 2 µg/mL	0.979
S. aureus Newman [2], first compound 0.375 µg/mL, partner 4 µg/mL	≥ 1
S. aureus Newman [2], first compound 0.75 µg/mL, partner 1 µg/mL	0.974
S. aureus Newman [2], first compound 0.75 µg/mL, partner 2 µg/mL	0.926
S. aureus Newman [2], first compound 0.75 µg/mL, partner 4 µg/mL	≥ 1
S. aureus Newman [2], first compound 1 µg/mL, partner 8 µg/mL	≥ 1
S. aureus Newman [2], first compound 1.5 µg/mL, partner 1 µg/mL	≥ 1
S. aureus Newman [2], first compound 1.5 µg/mL, partner 2 µg/mL	0.975
S. aureus Newman [2], first compound 1.5 µg/mL, partner 4 µg/mL	0.981
S. aureus Newman [2], first compound 2 µg/mL, partner 8 µg/mL	0.975
S. aureus Newman [2], first compound 4 µg/mL, partner 2 µg/mL	0.899
S. aureus Newman [2], first compound 4 µg/mL, partner 4 µg/mL	0.691
S. aureus Newman [2], first compound 4 µg/mL, partner 8 µg/mL	0.852

fitness, main component drawn
Conditions	partner 1 µg/mL	partner 2 µg/mL	partner 4 µg/mL
B. subtilis 168 [1], first compound 0.0625 µg/mL	0.904	0.902	0.906
B. subtilis 168 [1], first compound 0.25 µg/mL	–	–	0.0278
S. aureus Newman [2], first compound 0.5 µg/mL	0.948	0.936	0.981
S. aureus Newman [2], first compound 1 µg/mL	≥ 1	≥ 1	0.999
S. aureus Newman [2], first compound 2 µg/mL	0.98	0.986	1
S. pneumoniae D39V [3], first compound 2 µg/mL	0.942	0.942	0.962
S. pneumoniae D39V [3], first compound 4 µg/mL	0.973	0.977	0.967
S. pneumoniae D39V [3], first compound 8 µg/mL	0.978	0.968	0.951

main component drawn
Conditions	Bliss interaction score
B. subtilis 168 [4]	0.128
S. aureus DSM 20231	0.0736
S. aureus Newman [5]	-0.0274
S. pneumoniae D39V [6]	0.0873

CNC(C)C1CCC(N)C(OC2C(N)CC(N)C(OC3OCC(C)(O)C(NC)C3O)C2O)O1 (centres undefined) [Gentamicin] + Cc1ncc([N+](=O)[O-])n1CCO [Metronidazole]
fitness, main component drawn
Conditions	partner 0.625 µg/mL	partner 0.781 µg/mL	partner 1.073 µg/mL	partner 1.25 µg/mL	partner 1.562 µg/mL	partner 2.145 µg/mL	partner 2.5 µg/mL	partner 3.124 µg/mL	partner 4.29 µg/mL	partner 5 µg/mL
B. subtilis 168 [1], first compound 0.0625 µg/mL	0.897	–	–	0.926	–	–	0.922	–	–	–
B. subtilis 168 [1], first compound 0.25 µg/mL	0.0729	–	–	–	–	–	0.0383	–	–	–
S. aureus Newman [2], first compound 0.5 µg/mL	0.995	0.92	–	0.979	0.911	–	≥ 1	0.913	–	–
S. aureus Newman [2], first compound 1 µg/mL	≥ 1	≥ 1	–	0.974	≥ 1	–	0.986	≥ 1	–	–
S. aureus Newman [2], first compound 2 µg/mL	≥ 1	≥ 1	–	0.981	≥ 1	–	≥ 1	≥ 1	–	–
S. pneumoniae D39V [3], first compound 2 µg/mL	–	–	0.983	0.985	–	0.864	≥ 1	–	0.8	0.996
S. pneumoniae D39V [3], first compound 4 µg/mL	–	–	0.976	0.992	–	0.987	≥ 1	–	0.827	0.986
S. pneumoniae D39V [3], first compound 8 µg/mL	–	–	0.98	0.955	–	0.96	0.959	–	0.942	0.959

fitness, S. aureus Newman [2], one replicate, main component drawn
Conditions	first compound 0.375 µg/mL	first compound 0.75 µg/mL	first compound 1.5 µg/mL
partner 0.625 µg/mL	0.94	0.944	0.951
partner 1.25 µg/mL	≥ 1	≥ 1	≥ 1
partner 2.5 µg/mL	≥ 1	≥ 1	≥ 1

main component drawn
Conditions	Bliss interaction score
B. subtilis 168 [4]	-0.0531
S. aureus DSM 20231	0.0225
S. aureus Newman [5]	0.0412
S. pneumoniae D39V [6]	0.0587

CNC(C)C1CCC(N)C(OC2C(N)CC(N)C(OC3OCC(C)(O)C(NC)C3O)C2O)O1 (centres undefined) [Gentamicin] + Cc1onc(-c2ccccc2)c1C(=O)N[C@@H]1C(=O)N2[C@@H]1SC(C)(C)[C@@H]2C(=O)O [Oxacillin]
main component drawn
Conditions	fitness
B. subtilis 168 [1], first compound 0.0625 µg/mL, partner 0.002 µg/mL	0.899
B. subtilis 168 [1], first compound 0.0625 µg/mL, partner 0.004 µg/mL	0.82
B. subtilis 168 [1], first compound 0.125 µg/mL, partner 0.002 µg/mL	0.275
B. subtilis 168 [1], first compound 0.125 µg/mL, partner 0.004 µg/mL	0.0851
B. subtilis 168 [1], first compound 0.125 µg/mL, partner 0.008 µg/mL	0.0748
B. subtilis 168 [1], first compound 0.25 µg/mL, partner 0.002 µg/mL	0.0462
B. subtilis 168 [1], first compound 0.25 µg/mL, partner 0.004 µg/mL	0.0441
B. subtilis 168 [1], first compound 0.25 µg/mL, partner 0.008 µg/mL	0.0454
S. aureus Newman [2], first compound 0.5 µg/mL, partner 0.0156 µg/mL	0.82
S. aureus Newman [2], first compound 0.5 µg/mL, partner 0.0312 µg/mL	0.782
S. aureus Newman [2], first compound 0.5 µg/mL, partner 0.0625 µg/mL	0.672
S. aureus Newman [2], first compound 1 µg/mL, partner 0.0156 µg/mL	0.851
S. aureus Newman [2], first compound 1 µg/mL, partner 0.0312 µg/mL	0.776
S. aureus Newman [2], first compound 1 µg/mL, partner 0.0625 µg/mL	0.765
S. aureus Newman [2], first compound 2 µg/mL, partner 0.0156 µg/mL	0.901
S. aureus Newman [2], first compound 2 µg/mL, partner 0.0625 µg/mL	0.666
S. pneumoniae D39V [3], first compound 2 µg/mL, partner 0.005 µg/mL	0.985
S. pneumoniae D39V [3], first compound 2 µg/mL, partner 0.01 µg/mL	0.995
S. pneumoniae D39V [3], first compound 2 µg/mL, partner 0.02 µg/mL	0.953
S. pneumoniae D39V [3], first compound 2 µg/mL, partner 0.04 µg/mL	0.55
S. pneumoniae D39V [3], first compound 4 µg/mL, partner 0.005 µg/mL	0.999
S. pneumoniae D39V [3], first compound 4 µg/mL, partner 0.01 µg/mL	0.982
S. pneumoniae D39V [3], first compound 4 µg/mL, partner 0.02 µg/mL	0.947
S. pneumoniae D39V [3], first compound 4 µg/mL, partner 0.04 µg/mL	0.549
S. pneumoniae D39V [3], first compound 8 µg/mL, partner 0.005 µg/mL	0.963
S. pneumoniae D39V [3], first compound 8 µg/mL, partner 0.01 µg/mL	0.985
S. pneumoniae D39V [3], first compound 8 µg/mL, partner 0.02 µg/mL	0.939
S. pneumoniae D39V [3], first compound 8 µg/mL, partner 0.04 µg/mL	0.553

fitness, one replicate, main component drawn
Conditions	partner 0.0078 µg/mL	partner 0.0155 µg/mL	partner 0.0156 µg/mL	partner 0.031 µg/mL	partner 0.0312 µg/mL	partner 0.0625 µg/mL	partner 0.075 µg/mL	partner 0.15 µg/mL	partner 0.3 µg/mL
B. subtilis 168 [1], first compound 0.0625 µg/mL	≥ 1	0.976	–	0.948	–	–	0.663	0.033	0.0409
B. subtilis 168 [1], first compound 0.125 µg/mL	0.923	0.907	–	0.92	–	–	0.0517	0.0783	0.0465
B. subtilis 168 [1], first compound 0.25 µg/mL	0.265	0.218	–	0.171	–	–	0.0546	0.0554	0.0541
S. aureus Newman [2], first compound 0.375 µg/mL	–	–	0.785	–	0.736	0.648	–	–	–
S. aureus Newman [2], first compound 0.75 µg/mL	–	–	0.741	–	0.709	0.632	–	–	–
S. aureus Newman [2], first compound 1.5 µg/mL	–	–	0.581	–	0.106	0.113	–	–	–

main component drawn
Conditions	Bliss interaction score
B. subtilis 168 [4]	-0.0859
S. aureus DSM 20231	0.0545
S. aureus Newman [5]	0.0666
S. pneumoniae D39V [6]	0.104

Cc1onc(-c2ccccc2)c1C(=O)N[C@@H]1C(=O)N2[C@@H]1SC(C)(C)[C@@H]2C(=O)O [Oxacillin] + CN(C)c1cc(NC(=O)CNC(C)(C)C)c(O)c2c1C[C@H]1C[C@H]3[C@H](N(C)C)C(O)=C(C(N)=O)C(=O)[C@@]3(O)C(O)=C1C2=O [Tigecycline]
Conditions	fitness
B. subtilis 168 [1], first compound 0.002 µg/mL, partner 0.039 µg/mL	≥ 1
B. subtilis 168 [1], first compound 0.002 µg/mL, partner 0.078 µg/mL	0.976
B. subtilis 168 [1], first compound 0.002 µg/mL, partner 0.156 µg/mL	0.992
B. subtilis 168 [1], first compound 0.004 µg/mL, partner 0.039 µg/mL	0.963
B. subtilis 168 [1], first compound 0.004 µg/mL, partner 0.078 µg/mL	0.943
B. subtilis 168 [1], first compound 0.004 µg/mL, partner 0.156 µg/mL	0.95
B. subtilis 168 [1], first compound 0.008 µg/mL, partner 0.039 µg/mL	0.998
B. subtilis 168 [1], first compound 0.008 µg/mL, partner 0.078 µg/mL	0.945
B. subtilis 168 [1], first compound 0.008 µg/mL, partner 0.156 µg/mL	0.962
S. aureus Newman [2], first compound 0.0156 µg/mL, partner 0.039 µg/mL	0.794
S. aureus Newman [2], first compound 0.0156 µg/mL, partner 0.078 µg/mL	0.798
S. aureus Newman [2], first compound 0.0156 µg/mL, partner 0.156 µg/mL	0.778
S. aureus Newman [2], first compound 0.0312 µg/mL, partner 0.039 µg/mL	0.751
S. aureus Newman [2], first compound 0.0312 µg/mL, partner 0.078 µg/mL	0.762
S. aureus Newman [2], first compound 0.0312 µg/mL, partner 0.156 µg/mL	0.745
S. aureus Newman [2], first compound 0.0625 µg/mL, partner 0.039 µg/mL	0.641
S. aureus Newman [2], first compound 0.0625 µg/mL, partner 0.078 µg/mL	0.663
S. aureus Newman [2], first compound 0.0625 µg/mL, partner 0.156 µg/mL	0.688
S. pneumoniae D39V [3], first compound 0.01 µg/mL, partner 0.65 µg/mL	0.928
S. pneumoniae D39V [3], first compound 0.01 µg/mL, partner 1.3 µg/mL	0.951
S. pneumoniae D39V [3], first compound 0.01 µg/mL, partner 2.6 µg/mL	0.957
S. pneumoniae D39V [3], first compound 0.02 µg/mL, partner 0.65 µg/mL	0.904
S. pneumoniae D39V [3], first compound 0.02 µg/mL, partner 1.3 µg/mL	0.891
S. pneumoniae D39V [3], first compound 0.02 µg/mL, partner 2.6 µg/mL	0.875
S. pneumoniae D39V [3], first compound 0.04 µg/mL, partner 1.3 µg/mL	0.463
S. pneumoniae D39V [3], first compound 0.04 µg/mL, partner 2.6 µg/mL	0.531

fitness, B. subtilis 168 [1], one replicate
Conditions	first compound 0.0078 µg/mL	first compound 0.0155 µg/mL	first compound 0.031 µg/mL	first compound 0.075 µg/mL	first compound 0.15 µg/mL	first compound 0.3 µg/mL
partner 0.039 µg/mL	–	–	–	0.507	0.0264	0.0457
partner 0.078 µg/mL	–	–	–	0.549	0.0459	0.0479
partner 0.125 µg/mL	≥ 1	0.964	0.968	–	–	–
partner 0.156 µg/mL	–	–	–	0.607	0.049	0.0616
partner 0.25 µg/mL	0.962	≥ 1	0.923	–	–	–
partner 0.5 µg/mL	≥ 1	0.976	0.857	–	–	–

Conditions	Bliss interaction score
B. subtilis 168 [4]	0.0355
S. aureus DSM 20231	-0.0365
S. aureus Newman [5]	0.0567
S. pneumoniae D39V [6]	0.0953

Source: the supplement of paper PMC10627819
